For assay [1], the target named is Luciferin 4-monooxygenase (Photinus pyralis, UniProt P08659).
Description: GSK_PKIS: Inhibition of Firefly Luciferase (Data from PubChem: AID 652016) [NIH NCATS]
Assay [2] has as its target T1, Coelenterazine h 2-monooxygenase (Renilla reniformis, UniProt P27652).
T1 sequence (P27652 whole entry): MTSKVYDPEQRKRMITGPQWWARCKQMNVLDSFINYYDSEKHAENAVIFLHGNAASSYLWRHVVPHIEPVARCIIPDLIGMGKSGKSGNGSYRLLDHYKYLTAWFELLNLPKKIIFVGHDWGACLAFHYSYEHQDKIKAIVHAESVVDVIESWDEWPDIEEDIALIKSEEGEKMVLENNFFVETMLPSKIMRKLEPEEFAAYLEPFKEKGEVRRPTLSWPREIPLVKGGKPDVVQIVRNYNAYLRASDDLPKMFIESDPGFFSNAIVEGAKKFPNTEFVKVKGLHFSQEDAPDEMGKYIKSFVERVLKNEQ
Description: GSK_PKIS: Inhibition of Sea Pansy Luciferase (Data from PubChem: AID 652015) [NIH NCATS]

Luciferin 4-monooxygenase, sequence (P08659 whole entry): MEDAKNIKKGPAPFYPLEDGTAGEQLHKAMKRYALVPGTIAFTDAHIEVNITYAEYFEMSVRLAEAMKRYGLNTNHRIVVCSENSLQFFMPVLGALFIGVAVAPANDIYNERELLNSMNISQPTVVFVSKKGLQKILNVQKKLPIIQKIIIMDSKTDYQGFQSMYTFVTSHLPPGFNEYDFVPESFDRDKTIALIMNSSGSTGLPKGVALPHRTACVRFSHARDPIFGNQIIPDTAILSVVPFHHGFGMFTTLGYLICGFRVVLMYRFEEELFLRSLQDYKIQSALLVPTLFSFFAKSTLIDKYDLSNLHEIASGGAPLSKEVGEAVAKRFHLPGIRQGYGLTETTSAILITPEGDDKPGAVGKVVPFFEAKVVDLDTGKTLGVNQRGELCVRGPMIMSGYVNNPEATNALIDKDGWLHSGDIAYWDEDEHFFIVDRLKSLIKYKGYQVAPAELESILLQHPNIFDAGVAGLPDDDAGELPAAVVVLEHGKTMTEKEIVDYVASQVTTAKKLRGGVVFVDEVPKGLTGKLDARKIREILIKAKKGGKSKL

Take `COc1cc(N2CCN(C(C)C)CC2)ccc1Nc1nc(Nc2cccc3ncccc23)c2cc[nH]c2n1` [GSK-1511931A]: the concentration at half-maximal activity (AC50) in assay [1] (read-out: AC50) was 25.9 µM; in assay [2] (read-out: AC50), 18.3 µM.
Consider `CCCN1CCC(Oc2cc(Nc3nc(Nc4cccc(F)c4C(N)=O)c4cc[nH]c4n3)c(OC)cc2Cl)CC1` [GSK-1713088A], for which the figures for the AC50 in assay [1] (read-out: AC50) and in assay [2] were 0.291 µM and “Phenotype: Activator; Curve_Description: None”, respectively.
For the compound `COc1cc2c(cc1Nc1nc(Nc3cccc(F)c3C(N)=O)c3cc[nH]c3n1)N(C(=O)CN1CCN(C(C)C)CC1)CC2` [GSK-1751853A], the results for the AC50 result in assay [1] and in assay [2] (read-out: AC50) were “Phenotype: Inactive; Curve_Description: None” and 36.6 µM, respectively.
For the compound `COc1cc(N2CCN(C(C)C)CC2)ccc1Nc1nc(Nc2cccc(F)c2C(=O)O)c2cc[nH]c2n1` [GSK-1819799A], the AC50 result in assay [1] and in assay [2] was “Phenotype: Inactive; Curve_Description: None” each time.
Regarding `COc1cc2c(cc1Nc1nc(Nc3ccsc3C(N)=O)c3cc[nH]c3n1)N(C(=O)CN(C)C)CCC2` [GSK-2110236A], the AC50 entry in assay [1] was “Phenotype: Inactive; Curve_Description: None”; in assay [2] (read-out: AC50), 46.1 µM.
Consider `COc1cc2c(cc1Nc1nc(Nc3ccsc3C(N)=O)c3cc[nH]c3n1)N(C(=O)CN(C)C)CCC2(C)C` [GSK-2163632A], for which the AC50 entry in assay [1] and in assay [2] was “Phenotype: Inactive; Curve_Description: None” throughout.
In the case of `COc1cc2c(cc1Nc1nc(N3CCc4ccccc43)c3cc[nH]c3n1)N(C(=O)CN(C)C)CC2` [GSK-2186269A], the AC50 result in assay [1] was “Phenotype: Inactive; Curve_Description: None”; in assay [2] (read-out: AC50), 23.1 µM.
Regarding `COc1cc(C)c(NC(=O)CN(C)C)cc1Nc1nc(Nc2cccc(F)c2C(N)=O)c2cc[nH]c2n1` [GSK-2213727A], the AC50 entry in assay [1] and in assay [2] was “Phenotype: Inactive; Curve_Description: None” throughout.
As for `COc1cc(C)c(N(C)C(=O)CN(C)C)cc1Nc1nc(Nc2cccc(F)c2C(N)=O)c2cc[nH]c2n1` [GSK-2219385A], the AC50 entry in assay [1] and in assay [2] was “Phenotype: Inactive; Curve_Description: None” throughout.
Take `CNC(=O)c1ncccc1Nc1nc(Nc2cc3c(cc2OC)CCCN3C(=O)CN(C)C)nc2[nH]ccc12` [GSK-2220400A]: the AC50 result is “Phenotype: Inactive; Curve_Description: None” in assay [1] and “Phenotype: Activator; Curve_Description: None” in assay [2].
Consider `NS(=O)(=O)c1cccc(N/C=C2\C(=O)Nc3ccccc32)c1` [GW275616X], for which the concentration at half-maximal activity (AC50) in assay [1] (read-out: AC50) is 18.3 µM; in assay [2] it was “Phenotype: Inactive; Curve_Description: None”.
With `Cc1ccc2c(c1)/C(=N/Nc1ccc(S(N)(=O)=O)cc1)C(=O)N2` [GW275944X], the AC50 result in assay [1] and in assay [2] was “Phenotype: Inactive; Curve_Description: None” each time.
`NS(=O)(=O)c1ccc(N/N=C2\C(=O)Nc3ccc(-c4cnco4)cc32)cc1` [GW276655X]: the AC50 entry in assay [1] and in assay [2] was “Phenotype: Inactive; Curve_Description: None” in each case.
Take `CS(=O)(=O)Nc1ccc(N/C=C2\C(=O)Nc3ccccc32)cc1` [GW278681X]: the AC50 amounted to 16.3 µM in assay [1] (read-out: AC50) and 23.1 µM in assay [2] (read-out: AC50).
Regarding `Cc1cc(Cl)cc2c1NC(=O)C2=NNc1ccc(S(N)(=O)=O)cc1` [GW279320X], the AC50 result in assay [1] was “Phenotype: Inactive; Curve_Description: None”; in assay [2] (read-out: AC50), 29.1 µM.
As to `NS(=O)(=O)c1ccc(N/N=C2\C(=O)Nc3ccc(Cl)cc32)cc1` [GW280670X], the AC50 came to 41.1 µM in assay [1] (read-out: AC50) and 36.6 µM in assay [2] (read-out: AC50).
For the compound `COc1cc2ncnc(Nc3ccc4c(cnn4Cc4ccccc4)c3)c2cc1OC.Cl` [GW282449A], the AC50 entry in assay [1] and in assay [2] was “Phenotype: Inactive; Curve_Description: None” each time.
`Cc1cccc2c1NC(=O)/C2=N\Nc1ccc(S(N)(=O)=O)cc1` [GW282536X]: the values for the AC50 result in assay [1] and in assay [2] (read-out: AC50) were “Phenotype: Inactive; Curve_Description: None” and 18.3 µM, respectively.
`CN(C)c1cc2c(Nc3ccc4c(cnn4Cc4ccccc4)c3)ncnc2cn1` [GW282974X]: the AC50 result in assay [1] is “Phenotype: Inactive; Curve_Description: None”; in assay [2] (read-out: AC50) it was 23.1 µM.
Turning to `c1ccc(COc2ccc(Nc3ncnc4ccc(-c5ccco5)cc34)cc2)cc1` [GW284372X], the figures for the AC50 in assay [1] (read-out: AC50) and in assay [2] were 29.1 µM and “Phenotype: Inactive; Curve_Description: None”, respectively.
Regarding `O=C1Nc2ccccc2/C1=C/Nc1ccc2[nH]c(=O)[nH]c2c1` [GW284408X], the values for the AC50 in assay [1] (read-out: AC50) and in assay [2] were 4.11 µM and “Phenotype: Inactive; Curve_Description: None”, respectively.
Regarding `NS(=O)(=O)c1ccc(N/N=C2\C(=O)Nc3ccc(C(=O)NCCCn4ccnc4)cc32)cc1` [GW290597X], the AC50 result in assay [1] is “Phenotype: Inactive; Curve_Description: None”; in assay [2] (read-out: AC50), 18.3 µM.
For `COc1ccc2[nH]c3c4[nH]c5ccc(OC)cc5c4c4c(c3c2c1)C(=O)NC4=O` [GW296115X] the same measures were “Phenotype: Inactive; Curve_Description: None” and 25.9 µM.
Turning to `NS(=O)(=O)c1ccc(N/C=C2\C(=O)Nc3ccc4ncsc4c32)cc1` [GW297361X], the AC50 result in assay [1] was “Phenotype: Inactive; Curve_Description: None”; in assay [2] (read-out: AC50), 32.6 µM.
Regarding `CC(C)c1ccc2c(c1)NC(=O)/C2=N/Nc1ccc(S(N)(=O)=O)cc1` [GW300653X], the AC50 entry in assay [1] and in assay [2] was “Phenotype: Inactive; Curve_Description: None” in each case.
For `NS(=O)(=O)c1ccc(N/N=C2\C(=O)Nc3ccc(C(=O)NCc4ccncc4)cc32)cc1` [GW300657X], the AC50 result in assay [1] and in assay [2] was “Phenotype: Inactive; Curve_Description: None” throughout.
Consider `NS(=O)(=O)c1ccc(N/N=C2\C(=O)Nc3ccc(C(=O)NCCc4c[nH]cn4)cc32)cc1` [GW300660X], for which the AC50 result in assay [1] was “Phenotype: Inactive; Curve_Description: None”; in assay [2] (read-out: AC50) it was 16.3 µM.
For `CC(C)(CO)CNC(=O)c1ccc2c(c1)/C(=N/Nc1ccc(S(N)(=O)=O)cc1)C(=O)N2` [GW301784X], the figures for the AC50 in assay [1] (read-out: AC50) and in assay [2] were 41.1 µM and “Phenotype: Inactive; Curve_Description: None”, respectively.
Consider `O=C1Nc2ccccc2/C1=C/Nc1ccc(-n2cncn2)cc1` [GW301789X], for which the AC50 in assay [1] (read-out: AC50) was 18.3 µM; in assay [2], “Phenotype: Inactive; Curve_Description: None”.
For the compound `CN(C)c1cc2c(Nc3ccc4nc(Cc5ccccc5)[nH]c4c3)ncnc2cn1` [GW301888X], the AC50 in assay [1] (read-out: AC50) worked out at 16.3 µM; in assay [2] (read-out: AC50), 18.3 µM.
With `O=C1Nc2ccc(I)cc2C1=Cc1cc(Br)c(O)c(Br)c1` [GW305074X], the AC50 entry is “Phenotype: Inactive; Curve_Description: None” in assay [1] and 20.6 µM in assay [2] (read-out: AC50).
For `NS(=O)(=O)c1ccc(N/N=C2\C(=O)Nc3ccc4ncccc4c32)cc1` [GW305178X], the results for the AC50 in assay [1] (read-out: AC50) and in assay [2] (read-out: AC50) were 29.1 µM and 23.1 µM, respectively.
As to `C/C(Nc1ccc(S(N)(=O)=O)cc1)=C1/C(=O)Nc2ccccc21` [GW335962X], the AC50 was 3.66 µM in assay [1] (read-out: AC50) and “Phenotype: Inactive; Curve_Description: None” in assay [2].

Broadly, the AC50 is the concentration giving half of the maximal activity seen.

The record behind these values is ChEMBL document CHEMBL2303647, “Data associated with the publication PLoS ONE, 8(3), e57888, (2013) PMID: 23505445. Compounds: GSK PKIS; Assays: NIH NCATS”.
